Measurements: patent publication US8710097B2, “Flavonoid dimers and methods of making and using such” (The Hong Kong Polytechnic University, priority 2006, dated 2014)
“And” between values parts separate entries of the source, which are not always exact repeats. Equal values may be shown once.

Assays:
[1] = tested on: P388/ADR cells; assay: cells; settings: P388/ADR
Protocol: MDA435/LCC6 and P388 (both parent and MDR subtype) were maintained in DMEM and RPMI 1640 culture medium supplemented with 10% FBS, respectively. RPMI 1640 media also contained 100 units/ml penicillin and 100 μg/ml streptomycin. Cells were cultured at 37° C. in a humidified atmosphere with 5% CO2. A solution of 0.05% trypsin-EDTA was used to detach the MDA435/LCC6 (both wild type and MDR subtype) cells.
Cell proliferation assay. MDA435/LCC6 and P388 (both parent and MDR subtype) cells were seeded at 2000 and 5000 cells per well, respectively, in 96-well plates. Varying concentrations of anticancer drugs (Doxorubicin, Daunorubicin, Vincristine, Vinblastine, taxol, Mitoxantrone) with or without the flavonoid dimers were added in a final volume of 200 μl and cells were grown for 4 and 3 days for MDA435/LCC6 and P388 (both parent and MDR subtype) cells, respectively. For MDA435/LCC6 (both parent and MDR subtype), the corresponding drugs were added after cell attachment (24 hr incubation). To measure cell proliferation, the cell Titer 960 Aqueous Assay (Promega) was used according to the manufacturer's instructions. Briefly, MTS (2 mg/ml) and PMS (0.92 mg/ml) were mixed in a ratio of 20:1. 30 μl MTS/PMS mixture was added into each well and incubated for 2 hours at 37° C. Optical absorbance at 490 nm was then recorded using an ELISA microtiter plate reader (Bio-Rad). Each experiment was done at least in triplicate and repeated twice. Cytotoxicity of the anticancer drugs was expressed as the fraction of the cells survived relative to the untreated DMSO (0.05%) solvent controls.

[2] = tested on: MDA435/LCC6 MDR cells; assay: Doxorubicin accumulation; type: cell-based, human
Protocol: Doxorubicin accumulation. 2.5 ml (10^5 cells/ml) MDA435/LCC6 (both parent and MDR subtype) cells were seeded in each well of 6-well plates. At confluence, culture medium was removed. 2 ml of fresh DMEM with modulators was added and cells were incubated for 30 min at 37° C. Doxorubicin (final concentration of 20 μM) was then added and incubated for 2 h at 37° C. The cells were then harvested by trypsinization.
For P388 (both parent and MDR subtype) cells, 1 ml (10^5 cells) confluent cells were aliquot into Eppendorf tube and pre-incubated with flavone dimers for 30 min at 37° C. Doxorubicin (final concentration of 10 μM) was then added and incubated for 2 h at 37° C. at a final concentration of 10 μM. The cell pellets were washed 3 times with cold PBS by using an Eppendorf micro-centrifuge and lysed with 0.3N HCL in 50% ethanol, and sonicated for 30s. After centrifugation at 10000 rpm/min for 3 min, the supernatant was saved. The fluorescence of doxorubicin was measured using a spectrofluorometer (λexcite=470 nm, λemit=585 nm).
In order to understand whether the modulating activity for various anticancer drugs by different dimers is due to their different ability to modulate P-gp mediated drug efflux, their effects on the accumulation of doxorubicin in both MDA435/LCC6 sensitive and resistant cells were investigated. Doxorubicin was a fluorescent drug substrate of P-gp and was used in this experiment to monitor the P-gp mediated drug efflux. Accumulation of doxorubicin in these cells was determined in the presence or absence of apigenin dimers (10 μM) and monomer (20 μM). Verapamil was used as a positive control.

## O=c1cc(-c2ccc(OCCOCCOCCOCCOc3ccc(-c4cc(=O)c5c(O)cc(O)cc5o4)cc3)cc2)oc2cc(O)cc(O)c12 [Compound 9d, 1,13-Bis[4′-((5,7-dihydroxy)-4H-chromen-4-on-2-yl)phenyl]-1,4,7,10,13-pentaoxamidecane]
[1]; 5 μM 9d
  reversal of resistance to taxol, vincristine and vinblastine: completely reverse the resistance of P388/ADR to almost the sensitive level
[1]; 9d
  effect on mitoxantrone resistance: no effect
[1]; FIG. 8B, 9B
  saturating concentration for reversing doxorubicin and daunorubicin resistance: about 5 μM
[1]; daunorubicin + 5 μM 9d or VP
  RF, daunorubicin: 20
[1]; doxorubicin + 5 μM 9d
  RF, doxorubicin: 14
[1]; mitoxantrone + 5 μM 9d
  RF, mitoxantrone: 2
[1]; taxol + 5 μM 9d
  RF, taxol: 55
[1]; vinblastine + 5 μM 9d
  RF, vinblastine: 22
[1]; vincristine + 5 μM 9d
  RF, vincristine: 66
[2]; LCC6 MDR, 10 μM 9d
  doxorubicin accumulation relative to 9d-treated LCC6 cells: 97%
[2]; LCC6 MDR, apigenin dimers 10 μM, 20 μM doxorubicin, 2 h
  enhancement of doxorubicin accumulation, folds of control: 5.8 folds and 4 folds
[2]; MDA435/LCC6 MDR, 10 μM 9d, FIG. 7B
  intracellular doxorubicin concentration, % of the LCC6: 88%
